Measurements reported in patent US8835476B2, “Synthesis of novel antimicrobials” (priority 2005, dated 2014).

Legend:
recombinant E. coli LpxA = target: T1, recombinant E. coli LpxA (Escherichia coli, UniProt P0A722); experiment: LpxA assay: acyl-UDP-GlcNAc formation from UDP-[3H]GlcNAc, TLC; type: biochemical; details: 5 mM compound; FIG. 8
T1 construct: 6xHis (C); made in house; host or cells: E. coli BL21 (pET23b)
Description: The lpxA gene was amplified from an E. coli genomic library and inserted into a pET23b vector using standard recombinant DNA methodology. The 5′ oligonucleotide for amplification of the LpxA open reading frame was 5′-[…]-3′ (SEQ ID NO. 1) and contains a BamHI restriction enzyme site upstream of the LpxA ATG start codon and the 3′ oligonucleotide was 5′-[…]-3′ (SEQ ID NO. 2) and contains a XhoI restriction enzyme site downstream of the final codon of the LpxA open reading frame. Primers were custom synthesized. The primers were designed such that digestion of the amplification product would result in addition of a C-terminal 6×-His tag in frame with the LpxA open reading frame. Specifically, E. coli genomic DNA was isolated and an amplification reaction was carried out as follows: 33 μl water, 5 μl 10× reaction buffer, 1.5 μl of 50 mM magnesium sulfate, 3 μl of 10 mM dNTPs, 3 μl of a 50 μM solution of the 5′ LpxA primer, 3 μl of a 50 μM solution of the 3′ LpxA primer, 0.5 μl of E. coli genomic DNA solution, and 1 μl of polymerase. The reaction conditions were as follows: 94° C. for 2 minutes; followed by 30 cycles of 94° C. for 30 seconds, 50° C. for 30 seconds, 68° C. for 1.5 minutes, followed by an extension at 68° C. for 7 minutes. The resulting LpxA product was separated from other DNA on a 0.8% agarose gel and isolated from the gel. The LpxA open reading frame was cloned into a topoisomerase I-activated vector and transformed into E. coli. […] The newly synthesized plasmid containing the BamHI- and XhoI-flanked LpxA open reading frame and plasmid pET23a were digested with BamHI and XhoI at 37° C. for 2 hours, DNA was separated by agarose gel electrophoresis, isolated from the gel, and ligated. Ligation reactions were transformed into chemically competent E. coli and plasmid DNA was isolated. Restriction mapping was performed to determine which plasmids contained the LpxA open reading frame. To remove the T7 epitope coding sequence from the 5′end of the LpxA open reading frame, the pET23a plasmid containing the LpxA open reading frame was digested with the restriction enzymes BamHI and XhoI and a pET23b plasmid was digested with BglII and XhoI, DNA was separated by agarose gel electrophoresis, isolated from the gel, and ligated. Ligation reactions were transformed into chemically competent E. coli and plasmid DNA was isolated. Restriction mapping was performed to assess plasmids containing the LpxA open reading frame.
A 5 ml culture of E. Coli BL21 cells expressing the LpxA-6×His plasmid was grown overnight at 37° C. in LB medium containing 50 μg/ml ampicillin and 34 μg/ml chloramphenicol, then subcultured into 500 ml of the same medium and grown at 37° C. until A600=0.6. LpxA expression was induced by addition of 0.5 mM IPTG for three hours. The cells were centrifuged at 7 000×g for 10 minutes at 4° C. and lysed using a mild, nonionic detergent. The soluble fraction containing LpxA was added to 1 ml of nickel affinity resin in a 15 ml Falcon tube; the resin was washed extensively with extraction/wash buffer (50 mM Na-phosphate (pH 7.0) and 300 mM NaCl) prior to use. This mixture was incubated on a rotating platform at low speed for 20 minutes at room temperature. The resin was centrifuged at 1000 rpm in a bench top centrifuge for 2 min, washed twice (10 min each) with 10 ml of extraction/wash buffer, resuspended in 10 ml of extraction/wash buffer, and transferred to a 10 ml polypropylene disposable protein purification column. The column was eluted with 5 ml of 50 mM Na-phosphate (pH 7.0) containing 300 mM NaCl and 150 mM imidazole, collected in 1 ml fractions. The eluate was analysed by SDS-PAGE and was visualised using a protein stain (FIG. 7 inset).
Recombinant Vibrio harveyi acyl carrier protein was prepared from a GST fusion protein as described previously (Flaman et al., 2001). […]

[1] = tested on: LPS synthesis in E. coli strain D22; experiment: In vivo LPS synthesis: [3H]galactose incorporation into acid-precipitable material; type: cell-based
Protocol: LpxA catalyzes the first step in the synthesis of lipid A (the hydrophobic anchor of LPS), which is essential for the growth and pathogenesis of many gram-negative bacteria. The inhibition of LpxA activity would therefore result in decreased synthesis of LPS. To measure the synthesis of LPS in vivo, the incorporation of radiolabelled galactose into acid-precipitable material was determined. The E. coli strain used for these studies was D22 (obtained from the E. coli Genetic Stock Center), which contains a mutation in the LpxC gene (lpxC101; Normark et al., 1969, J Bacteriol 97, 1334). Strains harbouring this mutation have an increased susceptibility to antibiotics, in addition to producing approximately 30% less LPS (Grundstrom et al., 1980, J Bacteriol 144, 884.). Bacteria were grown in Luria broth to early-log phase, at which point, 500 μl was transferred to a culture tube containing 1 μl of [^3H]galactose (final concentration, 0.2 mM, 20 μCi/μmol) and mixed. Cultures were incubated at 30° C. for 75 minutes with shaking at 220 rpm. Incorporation was terminated by adding 400 μl of labelled culture to 44.4 μl of 100% trichloroacetic acid (TCA, 10% final concentration) in a 1.5 ml microcentrifuge tube. Tubes were vortexed, incubated on ice for 30 minutes, then centrifuged at 14 000 rpm for 5 minutes at room temperature. The pellet was rinsed twice with 1 ml of ice-cold 10% TCA, resuspended in 50 μl of formic acid, and transferred to a scintillation vial for counting.
Compounds to be tested were dissolved in DMSO and added to the bacterial culture prior to labelling with galactose, and LPS synthesis was determined as described previously. The final concentration of DMSO (1%, v/v) had minimal effect on LPS synthesis.

T1 sequence (P0A722 whole entry): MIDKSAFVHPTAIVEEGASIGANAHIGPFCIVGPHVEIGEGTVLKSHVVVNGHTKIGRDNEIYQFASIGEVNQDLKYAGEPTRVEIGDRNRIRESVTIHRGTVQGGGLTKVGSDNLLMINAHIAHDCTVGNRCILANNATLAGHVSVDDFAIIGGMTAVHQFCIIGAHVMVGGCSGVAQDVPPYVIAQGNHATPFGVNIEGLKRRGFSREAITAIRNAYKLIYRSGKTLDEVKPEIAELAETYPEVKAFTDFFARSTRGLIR

| SMILES | inhibition at 5000 µM (recombinant E. coli LpxA) [%] | decrease of LPS synthesis ([1]; 0.1 mM, FIG. 10B) [%] | decrease of LPS synthesis ([1]; 1 mM, FIG. 10A) [%] |
| --- | --- | --- | --- |
| COc1ccc(-c2cc(-c3nnn[nH]3)c(-c3ccc(OC)cc3)s2)cc1 [DNM-131D, 5-(2,5-Bis(4-methoxyphenyl)thiophen-3-yl)-1H-tetrazole] | > 80 | ~50 | – |
| CCOC(=O)c1cccc(-c2cc(-c3nnn[nH]3)c(-c3cccc(C(=O)OCC)c3)s2)c1 [DNM-131I, 5-(2,5-Bis(3-(ethoxylcarbonyl)phenyl)thiophen-3-yl)-1H-tetrazole] | > 80 | – | ~80 |
